Test results reported in patent US20060084790A1, “P-Rex1, a ptdins (3,4,5) p3-g-beta-gamma-regulated guanine-nucleotide exchange factor for rac” (The Babraham Institute, priority 2002, published 2006).

Columns and labels:
PAE cells = assay: Immunofluorescence microscopy of lamellipodia formation in myc-P-Rex1 transfected PAE cells; type: cell-based, pig
Protocol: Pig aortic endothelial (PAE) cells were transiently transfected with pCMV3-myc-P-Rex1 or pCMV3-myc-DAPP1 by electroporation, grown on coverslips for 10 h and then serum starved for 8 h. They were then treated or not with 100 nM wortmannin for 10 min followed by stimulation with varying doses of PDGF for 5 min. Cells were fixed and prepared for immunofluorescence microscopy by staining of P-Rex1 and DAPP1 with anti-myc epitope-tag primary and FITC-goat anti-mouse secondary antibodies and filamentuous actin with TRITC-phalloidin as previously described (Welch et al. 1998).

P-Rex1 = assay: Surface plasmon resonance (Biacore) binding of P-Rex1 to phospholipid vesicles; parameters: species or system human; conditions: 6 mol-% phosphoinositide; 100 nM P-Rex1; FIG. 5C
Protocol: Assays were conducted as described (Ellson et al. 2001), using mixed phospholipid vesicles (PtdCho, PtdS, phosphatidylethanolamine (PtdE), 330 μM each final concentration) with or without added phosphoinositides (6 mol-% final concentration) to load the L1 vesicle capture chip (Biacore) prior to the injection of 100 nM purified recombinant Sf9-cell derived P-Rex1.

[1] = tested on: neutrophil cytosol and low-density membranes (ROS formation); assay: ROS formation assay with neutrophil cytosol and membrane fractions; type: biochemical, pig; conditions: added as liposomes, biological diastereoisomer; FIG. 1B
Protocol: Neutrophil-enriched leukocytes were isolated from pigs' blood, sonicated in 0.25 M sucrose, 0.1 M KCl, 50 mM Hepes/NaOH pH 7.2 (4° C.), 1 mM DTT, 2 mM EGTA, 0.1 mM PMSF and 1× antiproteases (20 μg/ml of each antipain, aprotinin, pepstatin and leupetin) and centrifuged (100,000×g, 1 h, 4° C.) to yield cytosol and light membrane fractions (4.5 mg/ml protein, collected between 0.60 and 1.35 M sucrose and washed in sonication buffer). Light membranes (3 μl) were pre-mixed with Gβγ subunits, p101/p110γ-PI3K and/or N17-Rac (or boiled controls) in 6 μl containing 5 mM ATP, 8 mM MgCl2, 20 mM Hepes/NaOH pH 7.5 (4° C.), 2 mM EGTA, 10 mM β-glycerophosphate, 0.1 mM ortho-vanadate, 0.1 M KCl, 1 mM DTT, 0.01% (w/v) Na azide. After 25 min on ice, 20 μl was added containing 15 μl cytosol and 1 mM MgGTP, 20 μM FAD, 400 μM NADPH and 200 μM luminol. After 8 min at RT, single photon counts (SPC) per 0.1 min were quantitated in a scintillation counter at intervals of 3-5 min for up to 20 min (blanks without cytosol were subtracted). When lipids were added, they were preincubated with the membranes, and 10 μM GTPγS replaced MgGTP. Where wortmannin was added, it was preincubated with both cytosol and membrane fractions for 15 min on ice. Where EE-Rac1 was added, it was preloaded with different guanine nucleotides at a 5-fold excess over bound GDP.

recombinant human P-Rex1 = molecular target: T1, recombinant human P-Rex1 (Homo sapiens, UniProt Q8TCU6, A1118T/K1340E); assay: Rac-GEF assay for recombinant P-Rex1 ([35S]-GTPγS loading of EE-Rac1, liposomes); type: biochemical
T1 construct: made in house; host or cells: Sf9 cells (baculovirus, pAc0G1 vector)
Protocol: Liposomes (phosphatidylcholine (PtdCho), phosphatidylserine (PtdS), phosphatidylinositol (PtdIns), final assay concentration 200 μM each) were sonicated in lipid buffer (20 mM Hepes/NaOH pH 7.5 (4° C.), 100 mM NaCl, 1 mM EGTA) with or without PtdIns(3,4,5)P3 (final assay concentration 10 μM) and incubated for 10 min on ice with 2 μl of purified, GDP-loaded, recombinant, lipid-modified EE-Rac1 in 5 mM MgCl2, 50 mg/ml BSA, 5 mM DTT, 20 mM Hepes/NaOH pH 7.5 (4° C.), 100 mM NaCl, 1 mM EGTA (final assay concentration 100 nM EE-Rac1, 0.0024% cholate). Then 4 μl of Rac-GEF activity (cytosol, column fractions, or recombinant P-Rex1) was added, followed by 2 μl of GTPγS (in lipid buffer, final assay concentration 5 μM, including 1 μCi [^35S]-GTPγS). After 10 min at 30° C., the reaction was stopped and EE-Rac1 pulled down using anti-EE antibodies coupled to protein G-sepharose, and [^35S]-GTPγS-loading of Rac was detected by scintillation β-counting. Recombinant P-Rex1 was diluted in ‘buffer A’ (20 mM Hepes/NaOH pH 7.5 (4° C.), 1% betaine, 0.01% Na azide, 0.5 mM EGTA, 200 mM KCl, 10% ethylene glycol) to a final assay concentration of 50 nM. In assays with Gβγ, 2 μl of Gβγ in ‘buffer A’ were added to the liposome/Rac mix before the 10 min on ice, and P-Rex1 was added as 5×.

EE-Rac1 = assay: Rac-GEF assay with neutrophil cytosol and membrane fractions; type: biochemical; conditions: PtdIns(3,4,5)P3 alone (30 μM); FIG. 1C
Protocol: This assay was essentially as for ROS production, except pure, lipid-modified EE-Rac1 (30-50 nM final concentration) was added to the cytosol, and GTP, GTPγS, NADPH, FAD and luminol omitted. Three min after mixing membrane and cytosol fractions, [α^32P]-GTP (20 μCi per sample) was added. Four min later, the reaction was stopped and EE-Rac1 pulled down using anti-EE antibody coupled to protein G sepharose. The total dpm on EE-Rac1 were quantified by scintillation counting (blanks without EE-Rac1 were subtracted).

[2] = Protein phosphatase assay with para-nitrophenolphosphate; type: biochemical; conditions: P-Rex1 up to 192 nM
Text: We also used para-nitrophenolphosphate as a broad-spectrum substrate in a protein phosphatase assay, using calf intestinal alkaline phosphatase and MEG-2 tyrosine phosphatase as controls.

[3] = Inositol polyphosphate 4-phosphatase (lipid phosphatase) assay; type: biochemical; conditions: P-Rex1 up to 1.45 μM

Chain of P-Rex1 (Q8TCU6 whole entry A1118T/K1340E): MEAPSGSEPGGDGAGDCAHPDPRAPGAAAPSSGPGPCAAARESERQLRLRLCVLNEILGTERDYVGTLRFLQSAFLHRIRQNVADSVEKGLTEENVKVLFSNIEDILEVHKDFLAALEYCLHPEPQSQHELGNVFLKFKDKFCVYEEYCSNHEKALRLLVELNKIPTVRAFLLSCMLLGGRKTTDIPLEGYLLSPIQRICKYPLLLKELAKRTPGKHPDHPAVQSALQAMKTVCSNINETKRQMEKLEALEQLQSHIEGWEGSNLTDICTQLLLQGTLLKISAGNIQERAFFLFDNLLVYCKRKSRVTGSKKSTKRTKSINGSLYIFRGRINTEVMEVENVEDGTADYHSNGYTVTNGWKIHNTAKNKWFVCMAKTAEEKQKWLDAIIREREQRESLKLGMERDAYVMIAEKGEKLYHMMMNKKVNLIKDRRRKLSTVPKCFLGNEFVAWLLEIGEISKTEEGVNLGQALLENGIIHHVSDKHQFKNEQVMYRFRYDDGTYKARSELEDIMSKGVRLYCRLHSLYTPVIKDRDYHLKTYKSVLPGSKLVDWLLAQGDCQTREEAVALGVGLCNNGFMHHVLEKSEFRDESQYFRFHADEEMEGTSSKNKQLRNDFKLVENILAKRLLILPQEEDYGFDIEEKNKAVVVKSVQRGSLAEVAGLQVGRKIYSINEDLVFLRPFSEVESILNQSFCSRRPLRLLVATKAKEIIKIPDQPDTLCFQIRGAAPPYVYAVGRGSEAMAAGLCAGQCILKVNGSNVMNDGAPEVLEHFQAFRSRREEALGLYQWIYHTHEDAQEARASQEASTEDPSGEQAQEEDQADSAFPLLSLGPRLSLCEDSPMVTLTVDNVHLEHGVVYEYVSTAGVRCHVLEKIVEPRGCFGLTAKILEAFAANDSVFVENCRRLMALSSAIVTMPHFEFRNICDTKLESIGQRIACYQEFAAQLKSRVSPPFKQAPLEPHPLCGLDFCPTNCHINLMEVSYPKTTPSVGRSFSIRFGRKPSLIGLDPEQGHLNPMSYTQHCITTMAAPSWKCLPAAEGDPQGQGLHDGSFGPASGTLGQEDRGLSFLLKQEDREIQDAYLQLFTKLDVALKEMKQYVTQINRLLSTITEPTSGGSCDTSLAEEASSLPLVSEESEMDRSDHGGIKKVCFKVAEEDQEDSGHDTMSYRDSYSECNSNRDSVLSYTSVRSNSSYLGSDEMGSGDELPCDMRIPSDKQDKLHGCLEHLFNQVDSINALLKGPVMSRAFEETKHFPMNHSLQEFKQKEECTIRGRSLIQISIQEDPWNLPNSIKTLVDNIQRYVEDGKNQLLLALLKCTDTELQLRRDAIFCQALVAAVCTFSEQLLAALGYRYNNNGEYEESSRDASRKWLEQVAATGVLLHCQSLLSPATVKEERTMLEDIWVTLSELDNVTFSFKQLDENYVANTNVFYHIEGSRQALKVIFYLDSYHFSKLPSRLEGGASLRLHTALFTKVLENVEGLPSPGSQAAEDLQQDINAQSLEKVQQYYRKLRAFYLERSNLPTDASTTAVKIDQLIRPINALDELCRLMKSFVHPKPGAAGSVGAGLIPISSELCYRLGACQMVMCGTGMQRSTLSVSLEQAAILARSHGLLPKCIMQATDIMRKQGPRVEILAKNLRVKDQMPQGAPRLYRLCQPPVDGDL
T1 sequence (Q8TCU6 whole entry A1118T/K1340E): as above

## PDGF
PAE cells; PDGF-stimulation for 5 min
  P-Rex1-positive cells exhibiting the V12-Rac-like phenotype: 80%

## PtdIns(4,5)P2
P-Rex1
  P-Rex1 binding to phospholipid vesicles containing the phosphoinositide: only weakly

## PtdIns4P
P-Rex1
  P-Rex1 binding to phospholipid vesicles containing the phosphoinositide: only weakly

## PtdIns(3,5)P2
P-Rex1
  P-Rex1 binding to phospholipid vesicles containing the phosphoinositide: only weakly

## phosphatidylinositol(3,4,5)P3 [PtdIns(3,4,5)P3]
[1]
  activation of ROS formation: potently activate
Recombinant human P-Rex1; liposomes with PtdIns(3,4,5)P3 dose response, EE-Rac1, FIG. 5A, read-out: 50% maximal effect on Rac-GEF activity of P-Rex1
  EC50: 0.3 µM
P-Rex1
  P-Rex1 binding to phospholipid vesicles containing the phosphoinositide: substantially augmented
EE-Rac1
  activation of Rac1: stimulated activation

## C[C@H](CCC(=O)O)[C@H]1CC[C@H]2[C@@H]3[C@H](O)C[C@@H]4C[C@H](O)CC[C@]4(C)[C@H]3C[C@H](O)[C@]12C [cholate]
Recombinant human P-Rex1; FIG. 5D, 5E
  effect on P-Rex1 Rac-GEF activity in vitro: strongly inhibits

## PtdIns3P
P-Rex1
  P-Rex1 binding to phospholipid vesicles containing the phosphoinositide: only weakly

## PtdIns(3,4)P2
Recombinant human P-Rex1; phosphoinositides compared at 10 μM, FIG. 5B
  activation of P-Rex1 Rac-GEF activity by phosphoinositide: weak activation

## PtdIns5P
P-Rex1
  P-Rex1 binding to phospholipid vesicles containing the phosphoinositide: only weakly

## P-Rex1: novel 185 kD PtdIns(3,4,5)P3- and Gβγ-regulated guanine-nucleotide exchange factor for Rac (SEQ ID NO:1)
[2]
  protein phosphatase activity: no lipid or protein phosphatase activity
PAE cells; serum-starved, unstimulated cells transiently expressing myc-P-Rex1
  myc-positive cells with strongly exaggerated lamellipodia ('fried eggs', V12-Rac-like phenotype): around 30%
[3]
  lipid phosphatase activity: no lipid or protein phosphatase activity
